In article PMC5395518, “Design, synthesis, and biological evaluation of the novel glycyrrhetinic acid-cinnamoyl hybrids as anti-tumor agents” (Chemistry Central Journal, 2016):

What was measured:
[1] = tested on: caspase-3; experiment: Caspase-3 activity assay (Ac-DEVD-pNA cleavage) in Hela cells; type: cell-based, human; settings: 5, 10, 20 μM, 48 h
Protocol: Hela cells were seeded in dishes at a density of 5 × 10^5 cell per dish and the dishes were kept at 37 °C with 5% CO2 for 24 h. On the next day, various concentration of 8a (0, 5, 10, 20 μM) were added to the cells and cultured for 48 h. Pre-cooled PBS were added twice to wash the cells. After removal of the medium, ice-cold cell lysis buffer was added, and the cells were further incubated in an ice bath for 15 min, which contribute to the protein acquisition. The caspase-3 activity kit (Beyotime Institute of Biotechnology, Beijing, China) was used to determine the activity of caspase-3. A total of 50 μL cell lysates, 40 μL reaction buffer and 10 μL caspase-3 substrate (Ac-DEVDpNA) (2 mM) were added to 96-well plates. After 30 min of incubation, absorbance was measured at 405 nm, and samples were quantified with ELISA.

[2] = tested on: Hela cells; experiment: MTT cytotoxicity assay, Hela; type: cell-based, human
Description: (§1) HepG2 (human hepatocellular carcinoma), Hela (human cervical cancer), HT-29 (human colon carcinoma), MDCK (Madin–Darby canine kidney), H9C2 (rat myocardial cells) and HY926 were purchased from the Chinese Academy of Medical Sciences and Peking Union Medical College. All of these cell lines were maintained in RPMI-1640 (DMEM) supplemented with 10% (v/v) fetal bovine serum (FBS) and 1% (v/v) penicillin/streptomycin (Thermo Technologies, New York, NY, USA) under a humidified atmosphere containing 5% CO2 at 37 °C. To provide stock solutions which were used to prepare various concentrations of treatment media, GA and hybrids were added a volume of DMSO.
(§2) The cytotoxicity of these compounds was evaluated on three human cancer cell lines (HepG2, HT-29, Hela) and three non-tumor cells lines (MDCK, HY926, H9C2) and MTT assay was performed to detect the cell proliferation. Simply, exponentially growing cells were cultured in 96-well plates (3 × 10^3 cells/well). And the plates were placed in a humidified atmosphere for 72 h at 37 °C with 5% CO2. After added MTT solution (5 mg/mL) 20 μL to each well, the plate was incubated for a further 4 h. Then the cell supernatant was removed and 150 μL DMSO was added. Finally, the absorbance was determined at wavelength of 490 nm with the ELISA. Wells without drugs were used to be blanks. The IC50 values were calculated using Logit-method. The following Eq. (1) was proposed to calculate the inhibitory rate of cell growth:1 %inhibition=1-Sample group OD/Control group OD×100%

[3] = tested on: Hela cells; experiment: Giemsa staining on Hela cells; type: cell-based, human; settings: 5, 10, 20 μM, 72 h, with increase of concentration
Protocol: Hela cells were seeded in 12-well plates (5 × 10^3 cells/well), and then they were cultured for 24 h at 37 °C with 5% CO2. After that each group was added 8a, making the final concentration of 0, 5, 10, 20 μM respectively. After 72 h, the cell supernatant was removed and the cells were cleaned with PBS twice, then kept in PBS/ethanol (1:1) for 2 min and fixed with cold ethanol for 10 min. After discarding ethanol, the cells were stained with Giemsa (Giemsa, Molecular Probes/Invitrogen Life Technologies, Carlsbad, CA, USA) stained for 5 min and washed with water. In the end, the cells were observed and photographed under inverted phase-contrast microscope at a magnification of 200×.

[4] = tested on: MDCK cells; experiment: MTT cytotoxicity assay, MDCK (non-tumor); type: cell-based, canine
Description: as §1, §2

[5] = tested on: Kunming mice; experiment: Acute toxicity by gavage in Kunming mice; type: in vivo
Description: Forty healthy Kunming mice (weight 18–22 g) of both sexes were purchased from Beijing Vital River Laboratory Animal Technology Company Limited (Beijing, China). The mice were divided into two groups matched the same weight and size, along with the standard in our previous studies. In briefly, 20 mice were selected for blank control group, and the other 20 mice were for the treated group. All experiments followed the guidelines of “Regulation for the Administration of Affairs Concerning Experimental Animals” (State Council of China, 1988). All animals were placed in cages, fed with standard rodent chow and water ad libitum under a 12-h light–dark cycle. Before the experiments, the mice were deprived of food for 12 h but provided water freely. Then the treated group of both sexes were administered a single dose of 8a (0.3 mL/10 g) via gavage twice a day, which was prepared in advance in bean oil solution with the maximum suspended dose (50 mg/mL). The total administration of 8a was 3 g/kg during 8 h. And the blank control group were given bean oil by oral administration only. The mice’s general behavior was continuously noted in the first hour, intermittently observed in the next 4 h, and thereafter over a period of 24 h. Observations of the signs for toxicity and deaths were last for 14 days. The mortality response and behavior of toxic effects of mice were recorded.

[6] = tested on: HT-29 cells; experiment: MTT cytotoxicity assay, HT-29; type: cell-based, human; settings: 72 h, mean ± SD (n = 3)
Description: as §1, §2

[7] = tested on: H9C2 cells; experiment: MTT cytotoxicity assay, H9C2 (non-tumor); type: cell-based, rat
Description: as §1, §2

[8] = tested on: HY926 cells; experiment: MTT cytotoxicity assay, HY926 (non-tumor); type: cell-based
Description: as §1, §2

[9] = tested on: HepG2 cells; experiment: MTT cytotoxicity assay, HepG2; type: cell-based, human; settings: 72 h, mean ± SD (n = 3)
Description: as §1, §2

[10] = tested on: Hela cells; experiment: H33342 staining on Hela cells; type: cell-based, human; settings: 5, 10, 20 μM, 72 h, with increase of concentration
Protocol: H33342 staining was used to confirm whether the characteristic nuclear changes were associated with 8a in this assay. Hela cells were cultured in 12-well plates (5 × 10^4 cells/well), which were placed in a humidified atmosphere for 24 h at 37 °C with 5% CO2. And then each group was added 8a, making the final concentration of 0, 5, 10, 20 μM respectively. After 72 h, cell culture medium was discarded and the cells were washed twice with PBS. H33342 staining was then performed for 2 min and washed with water. In the end, the cells were observed and photographed under inverted phase-contrast microscope at a magnification of 200×.

[11] = tested on: Hela cells; experiment: Annexin V-FITC/PI flow cytometric apoptosis assay; type: cell-based, human; settings: 72 h, control 7.5%
Protocol: Hela cells were seeded in 12-well plates (5 × 10^4 cells/well), which were placed in a humidified atmosphere for 24 h at 37 °C with 5% CO2. After treated with different concentrations of 8a (5, 10, 20 μM) for 72 h, all cells were collected respectively with the right amount of trypsin (without EDTA) digestion. After added 1 mL cold PBS, the cells were gently suspended and centrifuged at 1000 rpm for 5 min. The harvested cells were suspended in 200 μL binding buffer which contained 10 μL Annexin V-FITC and PI. After avoided light reaction for 15 min, the cells were analyzed with a flow cytometry (BD, USA).

[12] = MTT, 72 h, mean ± SD (n = 3), non-tumor cells

SMILES: COc1ccc(/C=C/C(=O)OC2CCC3(C)C(CCC4(C)C3C(=O)C=C3C5CC(C)(C(=O)O)CCC5(C)CCC34C)C2(C)C)c(OC)c1OC (stereo not drawn) [Compound 8a, (2,3,4-Trimethoxy) cinnamoyl-3β-hydroxy-11-oxoolean-12-en-30-oic acid]
- caspase-3 activities in Hela cells [1]: enhanced in a concentration-dependent manner
- inhibition rate against Hela ([2]; 12.5 μM): 59.20%
- IC50 ([2]; MTT, 72 h, mean ± SD (n = 3)): 8.54 ± 1.44 µM
- morphological changes by Giemsa staining [3]: cell loss, nuclei lysis, chromatin condensation and cytoplasmic shrinkage were aggravated
- inhibition rate against MDCK ([4]; 12.5 μM): 38.56%
- IC50 [4, 12]: 31.8 ± 2.79 µM
- signs of toxicity or deaths ([5]; maximum tolerated dose 3 g/kg oral (gavage), 2 weeks observation, mice): no signs of toxicity or deaths were observed
- LD50 ([5]; oral administration in mice): exceeded 3.0 g/kg
- IC50 [6]: 15 ± 1.26 µM
- inhibition rate against H9C2 ([7]; 12.5 μM): 3.56%
- IC50 [7, 12]: > 50 µM
- inhibition rate against HY926 ([8]; 12.5 μM): 20.20%
- IC50 [8, 12]: 27.7 ± 1.39 µM
- IC50 [9]: 21.5 ± 1.5 µM
- nuclear changes by H33342 staining [10]: the nuclear fragmentation, the cytoplasmic shrinkage, and the shape of apoptotic cells became irregular
- apoptosis ratio ([11]; 5 μM): 15.7%
- apoptosis ratio ([11]; 10 μM): 27.7%
- apoptosis ratio ([11]; 20 μM): 60%
